# Measured values published in US20060094003A1, “Acetylcholine-dependent current as a novel ionic target for atrial fibrillation” (priority 2004, published 2006).
# How the values were obtained:
# [1] = tested on: IKH; assay: Patch-clamp of TQ-sensitive IKH component in LA cardiomyocytes of control and AT dogs; format: cell-based, canine; conditions: at −110 mV
# Procedure: Briefly, dogs were subjected to 7-13 days of AT at about 400 beats per minute (bpm). LA preparations were then coronary-perfused and studied intact in vitro or subjected to cardiomyocyte isolation. IKH was studied with patch clamp.
# Adult dogs were divided into control and AT groups. AT dogs were initially anesthetized with diazepam (0.25 mg/kg IV), ketamine (5.0 mg/kg IV), and halothane (1% to 2%) for transvenous insertion of right ventricular (RV) and right atrial (RA) unipolar pacing leads connected to ventricular and atrial pacemakers implanted in the neck. Pacing began 24 hours after pacemaker implantation. AV block was created by radiofrequency catheter ablation and the RV demand-pacemaker was programmed to 80 bpm. The RA was then tachypaced (400 bpm) for 7-13 days.
# On study days, dogs were anesthetized with pentobarbital (30 mg·kg^−1 I.V.) and artificially ventilated. Hearts and adjacent lung tissue were excised via a left thoracotomy and immersed in oxygenated Tyrode solution. […]
# For single cardiomyocytes, currents were recorded with whole-cell patch-clamp at 36±0.5° C. […] To control for cell-size variability, currents are expressed as densities (pA/pF). […]
# [2] = biological target: IKs (Homo sapiens, UniProt P51787); conditions: at concentrations of 8 to 30 nM; cited from earlier work
# [3] = biological target: IKATP (Homo sapiens, UniProt Q14654); conditions: at concentrations of 8 to 30 nM; cited from earlier work
# IKATP, sequence (Q14654 whole entry, species assumed): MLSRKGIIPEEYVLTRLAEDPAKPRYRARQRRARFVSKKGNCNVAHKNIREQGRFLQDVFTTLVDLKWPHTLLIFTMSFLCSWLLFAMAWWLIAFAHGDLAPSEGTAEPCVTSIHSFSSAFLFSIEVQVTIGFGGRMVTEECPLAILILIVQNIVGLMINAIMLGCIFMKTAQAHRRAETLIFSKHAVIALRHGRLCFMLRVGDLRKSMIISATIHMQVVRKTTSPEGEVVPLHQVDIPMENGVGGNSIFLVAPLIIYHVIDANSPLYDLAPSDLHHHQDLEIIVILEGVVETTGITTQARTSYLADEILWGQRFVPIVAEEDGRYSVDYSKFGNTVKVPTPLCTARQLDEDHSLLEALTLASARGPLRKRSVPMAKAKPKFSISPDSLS
# IKATP, sequence (O60706 whole entry partner, species assumed): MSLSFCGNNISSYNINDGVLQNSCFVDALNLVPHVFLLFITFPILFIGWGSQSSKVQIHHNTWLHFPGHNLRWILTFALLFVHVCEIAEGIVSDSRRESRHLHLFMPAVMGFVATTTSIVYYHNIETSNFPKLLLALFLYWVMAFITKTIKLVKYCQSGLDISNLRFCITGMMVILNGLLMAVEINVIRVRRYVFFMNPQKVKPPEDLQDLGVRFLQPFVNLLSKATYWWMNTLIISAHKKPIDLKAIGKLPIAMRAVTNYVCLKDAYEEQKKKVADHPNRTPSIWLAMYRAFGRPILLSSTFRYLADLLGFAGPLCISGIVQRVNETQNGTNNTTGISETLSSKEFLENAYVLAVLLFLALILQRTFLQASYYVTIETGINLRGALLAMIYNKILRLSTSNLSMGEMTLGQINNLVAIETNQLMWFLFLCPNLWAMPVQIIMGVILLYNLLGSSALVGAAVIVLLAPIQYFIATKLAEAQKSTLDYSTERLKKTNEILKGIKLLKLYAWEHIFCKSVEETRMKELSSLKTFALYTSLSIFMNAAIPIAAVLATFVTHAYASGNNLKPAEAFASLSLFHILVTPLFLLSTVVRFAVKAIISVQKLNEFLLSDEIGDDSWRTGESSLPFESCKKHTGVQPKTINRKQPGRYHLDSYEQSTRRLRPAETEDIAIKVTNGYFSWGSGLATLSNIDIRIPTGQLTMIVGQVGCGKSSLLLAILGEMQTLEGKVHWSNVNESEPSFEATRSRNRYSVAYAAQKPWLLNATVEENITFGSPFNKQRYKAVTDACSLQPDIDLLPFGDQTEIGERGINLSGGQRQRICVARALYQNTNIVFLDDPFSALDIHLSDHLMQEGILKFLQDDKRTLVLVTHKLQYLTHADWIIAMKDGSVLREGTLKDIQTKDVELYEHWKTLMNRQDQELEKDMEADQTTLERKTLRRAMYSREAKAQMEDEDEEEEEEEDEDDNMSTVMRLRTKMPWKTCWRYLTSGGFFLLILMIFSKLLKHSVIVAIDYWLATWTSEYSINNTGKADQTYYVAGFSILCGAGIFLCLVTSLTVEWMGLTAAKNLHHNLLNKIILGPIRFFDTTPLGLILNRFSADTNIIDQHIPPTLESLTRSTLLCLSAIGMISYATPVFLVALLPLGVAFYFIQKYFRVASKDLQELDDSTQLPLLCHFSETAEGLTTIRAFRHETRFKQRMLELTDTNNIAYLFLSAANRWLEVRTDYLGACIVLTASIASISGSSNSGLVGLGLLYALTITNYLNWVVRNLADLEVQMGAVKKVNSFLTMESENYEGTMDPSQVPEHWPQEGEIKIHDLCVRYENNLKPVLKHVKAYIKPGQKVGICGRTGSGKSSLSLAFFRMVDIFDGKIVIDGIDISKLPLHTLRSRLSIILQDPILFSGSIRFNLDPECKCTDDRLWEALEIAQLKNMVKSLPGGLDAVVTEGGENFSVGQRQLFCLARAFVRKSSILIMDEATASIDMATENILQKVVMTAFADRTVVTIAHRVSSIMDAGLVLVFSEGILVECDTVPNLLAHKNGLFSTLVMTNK
# [4] = tested on: Ito; conditions: at concentrations of 8 to 30 nM; cited from earlier work
# [5] = biological target: IKr (Homo sapiens, UniProt Q12809); conditions: at concentrations of 8 to 30 nM; cited from earlier work
# IKr, sequence (Q12809 whole entry): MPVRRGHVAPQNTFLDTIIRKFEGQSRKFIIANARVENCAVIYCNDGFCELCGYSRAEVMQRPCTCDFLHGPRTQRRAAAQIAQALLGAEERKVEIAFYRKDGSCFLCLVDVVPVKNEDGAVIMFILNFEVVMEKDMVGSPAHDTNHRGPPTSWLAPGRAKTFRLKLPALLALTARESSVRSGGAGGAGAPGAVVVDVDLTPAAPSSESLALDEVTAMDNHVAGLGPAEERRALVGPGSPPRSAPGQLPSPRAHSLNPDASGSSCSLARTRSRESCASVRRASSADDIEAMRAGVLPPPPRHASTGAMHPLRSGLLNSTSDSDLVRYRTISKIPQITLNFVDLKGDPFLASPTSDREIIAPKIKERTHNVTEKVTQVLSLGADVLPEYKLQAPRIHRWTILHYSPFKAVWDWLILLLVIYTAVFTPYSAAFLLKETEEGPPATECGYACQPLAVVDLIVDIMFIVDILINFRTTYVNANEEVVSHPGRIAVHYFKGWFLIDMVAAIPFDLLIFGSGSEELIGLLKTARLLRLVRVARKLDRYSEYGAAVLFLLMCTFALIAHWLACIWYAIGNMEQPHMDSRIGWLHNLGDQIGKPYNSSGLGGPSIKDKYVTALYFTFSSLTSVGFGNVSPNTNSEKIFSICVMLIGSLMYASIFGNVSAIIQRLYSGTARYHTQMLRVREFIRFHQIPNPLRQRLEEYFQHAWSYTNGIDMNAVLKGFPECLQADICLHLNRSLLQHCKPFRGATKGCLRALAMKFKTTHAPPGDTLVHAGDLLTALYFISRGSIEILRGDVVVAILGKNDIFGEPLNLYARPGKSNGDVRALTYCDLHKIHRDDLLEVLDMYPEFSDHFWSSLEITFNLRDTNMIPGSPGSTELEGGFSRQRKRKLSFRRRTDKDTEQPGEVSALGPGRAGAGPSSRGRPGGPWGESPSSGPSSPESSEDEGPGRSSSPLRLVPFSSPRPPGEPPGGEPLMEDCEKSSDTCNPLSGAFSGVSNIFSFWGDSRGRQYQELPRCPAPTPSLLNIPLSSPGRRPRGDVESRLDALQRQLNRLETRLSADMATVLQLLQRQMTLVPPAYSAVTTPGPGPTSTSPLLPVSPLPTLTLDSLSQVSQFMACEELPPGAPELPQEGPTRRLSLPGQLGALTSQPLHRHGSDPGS
# [6] = biological target: T1, Kir1 channels (Homo sapiens, UniProt P48048); conditions: Jin & Lu, 1999; cited from earlier work
# T1 sequence (P48048 1-391): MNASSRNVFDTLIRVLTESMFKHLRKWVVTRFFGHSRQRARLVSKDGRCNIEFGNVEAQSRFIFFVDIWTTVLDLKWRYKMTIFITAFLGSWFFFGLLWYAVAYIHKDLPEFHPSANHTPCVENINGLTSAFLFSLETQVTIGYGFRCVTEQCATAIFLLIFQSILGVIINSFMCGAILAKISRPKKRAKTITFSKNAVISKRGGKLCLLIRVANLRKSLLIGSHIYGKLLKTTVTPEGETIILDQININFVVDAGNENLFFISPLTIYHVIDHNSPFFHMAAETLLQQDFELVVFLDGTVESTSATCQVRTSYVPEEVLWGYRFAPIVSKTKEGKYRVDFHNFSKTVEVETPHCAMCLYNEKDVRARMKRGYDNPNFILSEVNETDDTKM
# [7] = tested on: instantaneous inward-rectifier current; assay: Whole-cell patch-clamp of instantaneous inward-rectifier current in canine cardiomyocytes; format: cell-based; conditions: 1 μM tertiapin-Q; not statistically significant
# Procedure: Adult mongrel dogs of either sex (weighing about 20-35 kg) were anaesthetized with pentobarbital (30 mg kg^−1 I.V.) and artificially ventilated with room air. Hearts and adjacent lung tissue were relatively quickly excised through a left lateral thoracotomy and immersed in oxygenated Tyrode solution (composition detailed hereinbelow) at room temperature. […] A left atrial (LA) preparation with the PVs intact was perfused via the left circumflex coronary artery, and subjected to either standard fine-tipped microelectrode recording of action potentials (APs) or cardiomyocyte isolation with collagenase-containing solutions, as previously described (Ehrlich et al. 2003). Six dogs were subjected to atrial tachycardia-induced remodeling induced by 1 week of atrial pacing at about 400 beats min^−1 after ablation of the AV node, as described in Li et al. 1999. Animal care and handling procedures followed the guidelines of the Canadian Council on Animal Care.
# To isolate LA and PV cardiomyocytes, the proximal circumflex artery was cannulated and the distal ends of PV myocardial sleeves (approximately 1-1.5 cm from the PV-LA junction) were marked with silk thread prior to subsequent enzyme perfusion with collagenase (100 U ml^−1, Worthington, type II), in order to facilitate localization of PV sleeves after enzymatic digestion. […] All comparisons were based on PV and LA cardiomyocytes isolated from each dog on each experimental day. After isolation, cells were stored at 4° C. and studied on the same day. […]
# Currents were recorded with the whole-cell patch-clamp technique at 36±0.5° C., as described in Yue et al. 1996. […] Capacitance was assessed using 5 mV, 10 ms hyperpolarizing steps from a holding potential (HP) of −60 mV. […]
# Currents were recorded with hyperpolarizing and depolarizing pulses (generally 4 s duration) from a HP of −40 mV to selected test potentials (TPs). […] For the determination of reversal potentials, tail currents were recorded after 1.6 s pulses to −120 mV followed by 3.2 s depolarizations to TPs between −110 and +20. […]
substance,measurement,setting,value
tertiapin-Q,100 nM TQ-sensitive component of IKH,[1]; AT dogs,−2.8±0.5 pA/pF
same,100 nM TQ-sensitive component of IKH,[1]; control dogs,−1.7±0.5 pA/pF
same,effect on IKs (in words),[2],no effect
same,effect on IKATP (in words),[3],no effect
same,effect on Ito (in words),[4],no effect
same,effect on IKr (in words),[5],no effect
same,IC50,[6],2 nM
same,decrease of mean instantaneous current,[7],25%
